Molecules are shown by their SMILES.

The first experiment relates to SKOV-3 (ovarian) cancer cells. As to the kind of experiment: Cell viability (MTT) assay, SKOV3 cells. The settings on record: 72 hours, MTT based assay; compounds added either alone or in presence of 1-3 ng/ml of TRAIL. On the procedure: (§1) MDA-MD-231 (breast) and SKOV-3 (ovarian) cancer cells were cultured in RPMI1640 media supplemented with 10% FBS and 100 units/mL of Penicillin and Steptomycin.
(§2) Viability assays were done on a number of cells including MDA-MB-231, SKOV-3, H460, PC3, HCT-116, and SW480 cells. Cells were seeded in 96 well plates at a respective density of 5000 and 2000 cells per well and incubated at 37° C. in presence of 5% CO2 for 24 hours. Selected compounds were diluted into the media at various concentration ranging from 0.01 uM up to 100 uM. Diluted compounds were added onto the MDA-MB-231 cells. For the MDA-MB-231 SKOV3, H460, PC3, HCT-116, and SW480 cells, the compounds were added either alone or in presence of 1-3 ng/ml of TRAIL. After 72 hours cellular viability was evaluated by MTT based assays.
(In general: Tetrazolium assays rely on reduction of a dye to a coloured formazan, in cell work by metabolically active cells.)
For `CN[C@@H](C)C(=O)N[C@@H](CC(=O)NCCNC(=O)C[C@H](NC(=O)[C@H](C)NC)C(=O)N1CCC[C@H]1CN(CCc1ccccc1)C(=O)C(F)(F)F)C(=O)N1CCC[C@H]1CN(CCc1ccccc1)C(=O)C(F)(F)F` [Compound 32], the EC50 is greater than 1000 nM.
Same read-out and setting: to `CN[C@@H](C)C(=O)N[C@H](C(=O)N1CCC[C@H]1CN(CCc1ccccc1)C(=O)C(F)(F)F)[C@@H](C)OCCCCCCO[C@H](C)[C@H](NC(=O)[C@H](C)NC)C(=O)N1CCC[C@H]1CN(CCc1ccccc1)C(=O)C(F)(F)F` [Compound 36] belongs less than 100 nM; to `CN[C@@H](C)C(=O)N[C@H](C(=O)N1CCC[C@H]1CN(CCc1ccccc1)S(C)(=O)=O)[C@@H](C)OCCCCCCO[C@H](C)[C@H](NC(=O)[C@H](C)NC)C(=O)N1CCC[C@H]1CN(CCc1ccccc1)S(C)(=O)=O` [Compound 37], less than 100 nM; to `CN[C@@H](C)C(=O)NC(CCCNC(=O)c1ccc(C(=O)NCCC[C@H](NC(=O)[C@H](C)NC)C(=O)N2CCC[C@H]2C(=O)N[C@@H]2CCCc3ccccc32)cc1)C(=O)N1CCC[C@H]1CN(CCc1ccccc1)C(=O)C(F)(F)F` (stereo partly shown) [Compound 38], less than 100 nM.
Still for that read-out and setting: to `CN[C@@H](C)C(=O)NC(CCCNC(=O)c1ccc(C(=O)NCCC[C@H](NC(=O)[C@H](C)NC)C(=O)N2CCC[C@H]2CN(CCc2ccccc2)C(=O)C(F)(F)F)cc1)C(=O)N1CCC[C@H]1CN(CCc1ccccc1)C(=O)C(F)(F)F` (stereo partly shown) [Compound 39] belongs less than 1000 nM.

The test system of another experiment is MDA-MB-231 (breast) cancer cells. The experiment can be described thus: Cell viability (MTT) assay, MDA cells. The settings on record: 72 hours, MTT based assay. As to the method: as §1, §2
With `CN[C@@H](C)C(=O)N[C@@H](CCC(=O)NCCNC(=O)CC[C@H](NC(=O)[C@H](C)NC)C(=O)N1CCC[C@H]1CN(CCc1ccccc1)C(=O)C(F)(F)F)C(=O)N1CCC[C@H]1CN(CCc1ccccc1)C(=O)C(F)(F)F` [Compound 18], the EC50 was less than 1000 nM.
Same read-out and setting: to `CN[C@@H](C)C(=O)N[C@@H](CCC(=O)NCCNC(=O)CC[C@H](NC(=O)[C@H](C)NC)C(=O)N1CCC[C@H]1CN(CCc1ccccc1)C(=O)C(F)(F)F)C(=O)N1CCC[C@H]1CN(CCc1ccccc1)C(=O)C(F)(F)F` [Compound 19] belongs less than 1000 nM.
In turn, `CN[C@@H](C)C(=O)N[C@@H](CCC(=O)NCCNC(=O)CC[C@H](NC(=O)[C@H](C)NC)C(=O)N1CCC[C@H]1CN(CCc1ccccc1)C(=O)C(F)(F)F)C(=O)N1CCC[C@H]1CN(CCc1ccccc1)C(=O)C(F)(F)F` [Compound 20] came in with an EC50 of less than 1000 nM.
Still for that read-out and setting: to `CN[C@@H](C)C(=O)N[C@@H](CCC(=O)NCCNC(=O)CC[C@H](NC(=O)[C@H](C)NC)C(=O)N1CCC[C@H]1CN(CCc1ccccc1)C(=O)C(F)(F)F)C(=O)N1CCC[C@H]1CN(CCc1ccccc1)C(=O)C(F)(F)F` [Compound 21] belongs less than 1000 nM.
The same measure, in the same setting: to `CN[C@@H](C)C(=O)N[C@@H](CCC(=O)NCCNC(=O)CC[C@H](NC(=O)[C@H](C)NC)C(=O)N1CCC[C@H]1CN(CCc1ccccc1)C(=O)C(F)(F)F)C(=O)N1CCC[C@H]1CN(CCc1ccccc1)C(=O)C(F)(F)F` [Compound 22] belongs less than 100 nM.
On the same count and under the same terms, to `CN[C@@H](C)C(=O)N[C@@H](CCC(=O)NCCNC(=O)CC[C@H](NC(=O)[C@H](C)NC)C(=O)N1CCC[C@H]1CN(CCc1ccccc1)C(=O)C(F)(F)F)C(=O)N1CCC[C@H]1CN(CCc1ccccc1)C(=O)C(F)(F)F` [Compound 30] belongs less than 100 nM; to `CN[C@@H](C)C(=O)N[C@@H](CCC(=O)NCCNC(=O)CC[C@H](NC(=O)[C@H](C)NC)C(=O)N1CCC[C@H]1CN(CCc1ccccc1)C(=O)C(F)(F)F)C(=O)N1CCC[C@H]1CN(CCc1ccccc1)C(=O)C(F)(F)F` [Compound 31], less than 100 nM.

Still in this experiment, the particulars now being: Homo sapiens, MDA-MB-231, 72 h, MTT based assay.
In turn, `CN[C@@H](C)C(=O)N[C@H](C(=O)N1CCC[C@H]1CN(CCc1ccccc1)C(C)=O)[C@@H](C)OCC#CC#CCO[C@H](C)[C@H](NC(=O)[C@H](C)NC)C(=O)N1CCC[C@H]1CN(CCc1ccccc1)C(C)=O` [Compound 5] returned an EC50 of less than 100 nM.
Same read-out and setting: the same measure for `CN[C@@H](C)C(=O)N[C@H](C(=O)N1CCC[C@H]1CN(CCc1ccccc1)C(=O)c1ccc(OC)cc1)[C@@H](C)OCC#CC#CCO[C@H](C)[C@H](NC(=O)[C@H](C)NC)C(=O)N1CCC[C@H]1CN(CCc1ccccc1)C(=O)c1ccc(OC)cc1` [Compound 9]: less than 100 nM.
Still for that read-out and setting: the same measure for `CN[C@@H](C)C(=O)N[C@H](C(=O)N1CCC[C@H]1CN(CCc1ccccc1)C(=O)CNCc1ccccc1)[C@@H](C)OCC#CC#CCO[C@H](C)[C@H](NC(=O)[C@H](C)NC)C(=O)N1CCC[C@H]1CN(CCc1ccccc1)C(=O)CNCc1ccccc1` [Compound 10]: less than 100 nM.
On the same count and under the same terms, the same measure for `CN[C@@H](C)C(=O)NC(CCCNC(=O)c1ccc(C(=O)NCCC[C@H](NC(=O)[C@H](C)NC)C(=O)N2CCC[C@H]2C(=O)N[C@@H]2CCCc3ccccc32)cc1)C(=O)N1CCC[C@H]1C(=O)N[C@@H]1CCCc2ccccc21` (stereo partly shown) [Compound 15]: less than 100 nM.
In the case of `CN[C@@H](C)C(=O)N[C@@H](CCCNC(=O)NCCC[C@H](NC(=O)[C@H](C)NC)C(=O)N1CCC[C@H]1C(=O)N[C@@H]1CCCc2ccccc21)C(=O)N1CCC[C@H]1C(=O)N[C@@H]1CCCc2ccccc21` [Compound 16], the EC50 is less than 100 nM.
Still for that read-out and setting: the same measure for `CN[C@@H](C)C(=O)N[C@@H](CCC(=O)NCc1ccc(CNC(=O)CC[C@H](NC(=O)[C@H](C)NC)C(=O)N2CCC[C@H]2CN(CCc2ccccc2)C(=O)C(F)(F)F)cc1)C(=O)N1CCC[C@H]1CN(CCc1ccccc1)C(=O)C(F)(F)F` [Compound 17]: less than 1000 nM; for `CN[C@@H](C)C(=O)N[C@@H](COCC#CC#CCOC[C@H](NC(=O)[C@H](C)NC)C(=O)N1CCC[C@H]1CN(CCc1ccccc1)C(=O)C(F)(F)F)C(=O)N1CCC[C@H]1CN(CCc1ccccc1)C(=O)C(F)(F)F` [Compound 24]: less than 100 nM; for `CN[C@@H](C)C(=O)N[C@H](C(=O)N1CCC[C@H]1C(=O)N[C@@H]1CCCc2ccccc21)[C@@H](C)OCCCCCCO[C@H](C)[C@H](NC(=O)[C@H](C)NC)C(=O)N1CCC[C@H]1C(=O)N[C@@H]1CCCc2ccccc21` [Compound 25]: less than 100 nM.
On the same count and under the same terms, to `CN[C@@H](C)C(=O)N[C@H](C(=O)N1CCC[C@H]1CN(CCc1ccccc1)C(=O)C(C)C)[C@@H](C)OCC#CC#CCO[C@H](C)[C@H](NC(=O)[C@H](C)NC)C(=O)N1CCC[C@H]1CN(CCc1ccccc1)C(=O)C(C)C` [Compound 26] belongs less than 100 nM; to `CNCC(=O)N(CCc1ccccc1)C[C@@H]1CCCN1C(=O)[C@@H](NC(=O)[C@H](C)NC)[C@@H](C)OCC#CC#CCO[C@H](C)[C@H](NC(=O)[C@H](C)NC)C(=O)N1CCC[C@H]1CN(CCc1ccccc1)C(=O)CNC` [Compound 27], less than 1000 nM.
Take `CN[C@@H](C)C(=O)N[C@H](C(=O)N1CCC[C@H]1CN(CCc1ccccc1)C(=O)C(F)F)[C@@H](C)OCC#CC#CCO[C@H](C)[C@H](NC(=O)[C@H](C)NC)C(=O)N1CCC[C@H]1CN(CCc1ccccc1)C(=O)C(F)F` [Compound 28]: the EC50 is less than 100 nM.
The same measure, in the same setting: to `CN[C@@H](C)C(=O)N[C@@H](CC(=O)NCCNC(=O)C[C@H](NC(=O)[C@H](C)NC)C(=O)N1CCC[C@H]1CN(CCc1ccccc1)C(=O)C(F)(F)F)C(=O)N1CCC[C@H]1CN(CCc1ccccc1)C(=O)C(F)(F)F` [Compound 35] belongs less than 1000 nM.

Still in this experiment, the particulars now being: Homo sapiens, MDA-MB-231; 72 hours, MTT based assay.
For `CN[C@@H](C)C(=O)N[C@H](C(=O)N1CCC[C@H]1CN(CCc1ccccc1)C(=O)CF)[C@@H](C)OCC#CC#CCO[C@H](C)[C@H](NC(=O)[C@H](C)NC)C(=O)N1CCC[C@H]1CN(CCc1ccccc1)C(=O)CF` [Compound 29], the EC50 is less than 100 nM.

As a reminder, the EC50 is the concentration giving half of the maximal effect.
